Data reported in PubChem BioAssay AID256 (DTP/NCI, 2004).
“And” between values parts separate entries of the source, which are not always exact repeats. Equal entries are not always repeated. Toxic doses and inconclusive results are not listed. How the source made its calls: active means survival T/C of 150% or more; inactive means T/C below 125% in these data.

System: CD2F1 mice, L1210 leukemia ip, survival T/C
Assay: NCI In Vivo Anticancer Drug Screen. Data for tumor model L1210 Leukemia (intraperitoneal) in CD2F1 (CDF1) mice
Settings: higher = longer survival
Outline: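 Vehicle-treated tumor-bearing mice served as controls (C) for compound-treated mice (T). Reported figure is T divided by C.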

[1] = endpoint: mean survival time, dose: 200.0 mg/kg/injection, schedule: Q01DX005 (ip), vehicle: distilled water + Tween-80
[2] = endpoint: mean survival time, dose: 100.0 mg/kg/injection, schedule: Q01DX009 (ip), vehicle: saline with Tween-80
[3] = endpoint: mean survival time, dose: 200.0 mg/kg/injection, schedule: Q01DX009 (ip), vehicle: saline with Tween-80
[4] = endpoint: mean survival time, dose: 100.0 mg/kg/injection, schedule: Q04DX002 (ip), vehicle: saline with Tween-80
[5] = endpoint: mean survival time, dose: 200.0 mg/kg/injection, schedule: Q04DX002 (ip), vehicle: saline with Tween-80
[6] = endpoint: mean survival time, dose: 400.0 mg/kg/injection, schedule: Q04DX002 (ip), vehicle: saline with Tween-80
[7] = endpoint: mean survival time, dose: 50.0 mg/kg/injection, schedule: Q01DX001 (ip), vehicle: saline with Tween-80
[8] = endpoint: mean survival time, dose: 100.0 mg/kg/injection, schedule: Q01DX001 (ip), vehicle: saline with Tween-80
[9] = endpoint: mean survival time, dose: 100.0 mg/kg/injection, schedule: Q04DX003 (ip), vehicle: saline with Tween-80
[10] = endpoint: mean survival time, dose: 200.0 mg/kg/injection, schedule: Q04DX003 (ip), vehicle: saline with Tween-80
[11] = endpoint: mean survival time, dose: 400.0 mg/kg/injection, schedule: Q04DX003 (ip), vehicle: saline with Tween-80
[12] = endpoint: mean survival time, dose: 400.0 mg/kg/injection, schedule: Q01DX009 (ip), vehicle: saline with Tween-80
[13] = endpoint: mean survival time, dose: 12.5 mg/kg/injection, schedule: Q04DX002 (ip), vehicle: saline with Tween-80
[14] = endpoint: mean survival time, dose: 25.0 mg/kg/injection, schedule: Q04DX003 (ip), vehicle: saline with Tween-80
[15] = endpoint: mean survival time, dose: 50.0 mg/kg/injection, schedule: Q04DX003 (ip), vehicle: saline with Tween-80

Measured: T/C

CC1(C)OC2C(/C=C3/CC(=O)NC3=O)OC(n3ccc(=O)[nH]c3=O)C2O1 (stereo not given)
inactive: endpoint: mean survival time, dose: 12.5 mg/kg/injection, schedule: Q01DX005 (ip), vehicle: distilled water + Tween-80 100 % of control | endpoint: mean survival time, dose: 25.0 mg/kg/injection, schedule: Q01DX005 (ip), vehicle: distilled water + Tween-80 100 % of control | endpoint: mean survival time, dose: 50.0 mg/kg/injection, schedule: Q01DX005 (ip), vehicle: distilled water + Tween-80 103 % of control | endpoint: mean survival time, dose: 100.0 mg/kg/injection, schedule: Q01DX005 (ip), vehicle: distilled water + Tween-80 100 % of control | [1] 103 % of control

CCCC(CCC)(CNC(C)=O)C1CCCCC1
inactive: endpoint: mean survival time, dose: 75.0 mg/kg/injection, schedule: Q01DX001 (ip), vehicle: saline 98 % of control | endpoint: mean survival time, dose: 150.0 mg/kg/injection, schedule: Q01DX001 (ip), vehicle: saline 88 % of control | endpoint: mean survival time, dose: 300.0 mg/kg/injection, schedule: Q01DX001 (ip), vehicle: saline 87 % of control

COC(=O)C1CC[N-]CC1.COC(=O)C1CC[N-]CC1.[Cl][Pt+2][Cl]
inactive: [2] 115 % of control | [3] 114 % of control

Nc1c[nH]c(=O)[nH]c1=O
inactive: [4] 101 % of control | [5] 109 % of control | [6] 109 % of control

NC(=O)C1(C(N)=O)CCCC1
inactive: endpoint: mean survival time, dose: 75.0 mg/kg/injection, schedule: Q04DX002 (ip), vehicle: saline with Tween-80 112 % of control | endpoint: mean survival time, dose: 150.0 mg/kg/injection, schedule: Q04DX002 (ip), vehicle: saline with Tween-80 96 % of control | endpoint: mean survival time, dose: 300.0 mg/kg/injection, schedule: Q04DX002 (ip), vehicle: saline with Tween-80 96 % of control

Cn1cnc([N+](=O)[O-])c1S(=O)(=O)NCN1CCOCC1
inactive: endpoint: mean survival time, dose: 6.25 mg/kg/injection, schedule: Q01DX009 (ip), vehicle: Klucel (hydroxypropylcellulose) (HPC) 95 % of control | endpoint: mean survival time, dose: 12.5 mg/kg/injection, schedule: Q01DX009 (ip), vehicle: Klucel (hydroxypropylcellulose) (HPC) 118 % of control and 101 % of control | endpoint: mean survival time, dose: 25.0 mg/kg/injection, schedule: Q01DX009 (ip), vehicle: Klucel (hydroxypropylcellulose) (HPC) 101 % of control and 106 % of control | endpoint: mean survival time, dose: 50.0 mg/kg/injection, schedule: Q01DX009 (ip), vehicle: Klucel (hydroxypropylcellulose) (HPC) 95 % of control and 110 % of control | endpoint: mean survival time, dose: 100.0 mg/kg/injection, schedule: Q01DX009 (ip), vehicle: Klucel (hydroxypropylcellulose) (HPC) 96 % of control

CSc1ccccc1N=Cc1cc(Cl)ccc1O
inactive: endpoint: mean survival time, dose: 25.0 mg/kg/injection, schedule: Q01DX001 (ip), vehicle: saline with Tween-80 96 % of control | [7] 96 % of control | [8] 96 % of control

CCC(C)(S(=O)(=O)CC)S(=O)(=O)CC
inactive: [9] 102 % of control | [10] 98 % of control | [11] 98 % of control

O=C(NCc1ccccc1)C(=O)NCc1ccccc1
inactive: [4] 90 % of control | [5] 87 % of control | [6] 90 % of control

O=C1OC2C(I)C3CC1C2C3 (stereo not given)
inactive: [9] 96 % of control | [10] 96 % of control

CCOC(=O)NC12c3ccccc3C(c3ccccc31)C(C(=O)O)C2C(=O)O (stereo not given)
inactive: [2] 90 % of control | [3] 100 % of control | [12] 103 % of control

Fc1cc(F)c(F)c(Oc2c(F)c(F)c(-c3c(F)c(F)c(F)c(F)c3F)c(F)c2F)c1F
inactive: [9] 100 % of control | [10] 91 % of control | [11] 91 % of control

CC1=C(c2ccccc2)C(c2ccccc2)C(C)C1=O (stereo not given)
inactive: [2] 100 % of control | [3] 98 % of control | [12] 87 % of control

CC(=O)N=C1C=C(NC(C)=O)C(=O)c2ncccc21
inactive: endpoint: mean survival time, dose: 6.25 mg/kg/injection, schedule: Q04DX002 (ip), vehicle: saline with Tween-80 95 % of control | [13] 119 % of control | endpoint: mean survival time, dose: 25.0 mg/kg/injection, schedule: Q04DX002 (ip), vehicle: saline with Tween-80 119 % of control

C[C@]12CC[C@H](O)C[C@@]1(O)CC[C@@H]1[C@@H]2CC[C@]2(C)[C@@H](c3ccc(=O)oc3)C[C@H]3O[C@]132
inactive: endpoint: mean survival time, dose: 2.5 mg/kg/injection, schedule: Q01DX009 (ip), vehicle: other 97 % of control | endpoint: mean survival time, dose: 5.0 mg/kg/injection, schedule: Q01DX009 (ip), vehicle: other 92 % of control | endpoint: mean survival time, dose: 10.0 mg/kg/injection, schedule: Q01DX009 (ip), vehicle: other 91 % of control

C1CCC2CN(CCCN3CCOCC3)CC2C1 (stereo not given)
inactive: endpoint: mean survival time, dose: 100.0 mg/kg/injection, schedule: Q01DX009 (ip), vehicle: saline 102 % of control | endpoint: mean survival time, dose: 200.0 mg/kg/injection, schedule: Q01DX009 (ip), vehicle: saline 96 % of control

CC(C#N)(Nc1ccccc1)c1ccccc1 (stereo not given)
inactive: endpoint: mean survival time, dose: 100.0 mg/kg/injection, schedule: Q04DX003 (ip), vehicle: saline 102 % of control | endpoint: mean survival time, dose: 200.0 mg/kg/injection, schedule: Q04DX003 (ip), vehicle: saline 103 % of control | endpoint: mean survival time, dose: 400.0 mg/kg/injection, schedule: Q04DX003 (ip), vehicle: saline 96 % of control

CC(=O)CC(=O)c1cccnc1
inactive: [9] 103 % of control | [10] 97 % of control | [11] 101 % of control

Clc1c(Cl)c(Cl)c(CSCc2c(Cl)c(Cl)c(Cl)c(Cl)c2Cl)c(Cl)c1Cl
inactive: [2] 93 % of control | [9] 91 % of control | [3] 96 % of control | [10] 96 % of control | [12] 94 % of control | [11] 90 % of control

Cn1c(=O)c2c(ncn2C(C(N)=O)C(N)=O)n(C)c1=O
inactive: [1] 106 % of control | endpoint: mean survival time, dose: 400.0 mg/kg/injection, schedule: Q01DX005 (ip), vehicle: distilled water + Tween-80 100 % of control

CCCCNC(=O)Oc1ccc(OCc2ccccc2)cc1
inactive: [2] 96 % of control | [9] 94 % of control | [3] 89 % of control | [10] 91 % of control | [12] 92 % of control

Nc1nc(-c2cccc3ccccc23)cc2ccccc12
inactive: endpoint: mean survival time, dose: 12.5 mg/kg/injection, schedule: Q01DX009 (ip), vehicle: saline with Tween-80 89 % of control and 98 % of control | endpoint: mean survival time, dose: 25.0 mg/kg/injection, schedule: Q01DX009 (ip), vehicle: saline with Tween-80 101 % of control and 102 % of control | endpoint: mean survival time, dose: 50.0 mg/kg/injection, schedule: Q01DX009 (ip), vehicle: saline with Tween-80 104 % of control and 105 % of control | [2] 112 % of control and 97 % of control | [3] 118 % of control and 106 % of control

CC(=O)COc1ccccc1NC(C)=O
inactive: [9] 91 % of control | [10] 102 % of control | [11] 91 % of control

CC(=O)NC1C(OC(C)=O)OC(COC(c2ccccc2)(c2ccccc2)c2ccccc2)C(O)C1OC(C)=O (stereo not given)
inactive: [13] 93 % of control | endpoint: mean survival time, dose: 12.5 mg/kg/injection, schedule: Q04DX003 (ip), vehicle: saline with Tween-80 103 % of control | [14] 95 % of control | [7] 88 % of control | endpoint: mean survival time, dose: 50.0 mg/kg/injection, schedule: Q04DX002 (ip), vehicle: saline with Tween-80 91 % of control | [15] 87 % of control | [8] 87 % of control | [4] 88 % of control | [9] 93 % of control | endpoint: mean survival time, dose: 200.0 mg/kg/injection, schedule: Q01DX001 (ip), vehicle: saline with Tween-80 88 % of control | endpoint: mean survival time, dose: 400.0 mg/kg/injection, schedule: Q01DX001 (ip), vehicle: saline with Tween-80 90 % of control

CCc1cccc(OS(=O)(=O)c2cccc([N+](=O)[O-])c2)c1
inactive: [2] 98 % of control | [9] 103 % of control | [3] 102 % of control | [10] 103 % of control | [12] 93 % of control | [11] 101 % of control

CCCCNCCC(=O)c1ccc(Cl)cc1
inactive: [14] 98 % of control | [15] 98 % of control

O=c1nc(N2CCSCC2)ccn1C1OC(CO)C(O)C1O (stereo not given)
inactive: endpoint: median survival time, dose: 12.5 mg/kg/injection, schedule: Q01DX005 (ip), vehicle: water 100 % of control | endpoint: median survival time, dose: 25.0 mg/kg/injection, schedule: Q01DX005 (ip), vehicle: water 101 % of control | endpoint: median survival time, dose: 50.0 mg/kg/injection, schedule: Q01DX005 (ip), vehicle: water 102 % of control | endpoint: median survival time, dose: 100.0 mg/kg/injection, schedule: Q01DX005 (ip), vehicle: water 101 % of control | endpoint: median survival time, dose: 200.0 mg/kg/injection, schedule: Q01DX005 (ip), vehicle: water 103 % of control

CN(C)/C=N\c1ncnc2c1cnn2C1OC(CO)C(O)C1O (stereo not given)
inactive: endpoint: mean survival time, dose: 3.13 mg/kg/injection, schedule: Q01DX005 (ip), vehicle: water 96 % of control | endpoint: mean survival time, dose: 6.25 mg/kg/injection, schedule: Q01DX005 (ip), vehicle: water 102 % of control | endpoint: mean survival time, dose: 12.5 mg/kg/injection, schedule: Q01DX005 (ip), vehicle: water 110 % of control | endpoint: mean survival time, dose: 25.0 mg/kg/injection, schedule: Q01DX005 (ip), vehicle: water 98 % of control and 107 % of control | endpoint: mean survival time, dose: 50.0 mg/kg/injection, schedule: Q01DX005 (ip), vehicle: water 113 % of control and 110 % of control
